{"source": "paper PMC5698592", "about": "(British Journal of Clinical Pharmacology, 2017)", "key": {"[1]": {"assay": "Phase I safety assessment", "type": "in vivo, human", "settings": "fasted, healthy subjects; for Number of subjects who reported AEs / Number of subjects with AEs considered to be treatment‐related / Subjects who reported AEs / Subjects with AEs considered to be treatment‐related: after single oral dose of each treatment; for Abdominal pain, number of events / Abdominal pain, number of subjects / Dizziness, number of events / Dizziness, number of subjects / Dysphonia, number of events / Dysphonia, number of subjects / Euphoric mood, number of events / Euphoric mood, number of subjects / Fatigue, number of events / Fatigue, number of subjects / Feeling abnormal, number of events / Feeling abnormal, number of subjects / Headache, number of events / Headache, number of subjects / Nasal congestion, number of events / Nasal congestion, number of subjects / Nausea, number of events / Nausea, number of subjects / Rash, number of events / Rash, number of subjects / Rhinitis, number of events / Rhinitis, number of subjects / Rhinorrhoea, number of events / Rhinorrhoea, number of subjects / Somnolence, number of events / Somnolence, number of subjects / Vessel puncture site pain, number of events / Vessel puncture site pain, number of subjects / Vessel puncture site reaction, number of events / Vessel puncture site reaction, number of subjects: single oral dose"}, "[2]": {"settings": "cited from earlier work"}, "[3]": {"assay": "Phase I single-dose pharmacokinetics, plasma tramadol, M1 and celecoxib", "type": "in vivo, human", "settings": "for AUC(0-inf): human, plasma, po, 100 mg"}, "[4]": {"settings": "after use of IR tramadol; cited from earlier work"}, "[5]": {"settings": "tramadol administered alone in its conventional form; cited from earlier work"}, "mu‐opioid receptor": {"system": "mu‐opioid receptor", "settings": "compared with tramadol itself; cited from earlier work"}, "[6]": {"settings": "celecoxib alone vs. tramadol + celecoxib"}}}
{"compound": "Cc1ccc(-c2cc(C(F)(F)F)nn2-c2ccc(S(N)(=O)=O)cc2)cc1", "note": "[celecoxib]", "values": [{"measurement": "Number of subjects who reported AEs", "setting": "[1]", "value": 12}, {"measurement": "Number of subjects with AEs considered to be treatment‐related", "setting": "[1]", "value": 8}, {"measurement": "Subjects who reported AEs", "setting": "[1]", "value": 34.3, "unit": "%"}, {"measurement": "Subjects with AEs considered to be treatment‐related", "setting": "[1]", "value": 22.9, "unit": "%"}, {"measurement": "Abdominal pain, number of events", "setting": "[1]", "value": 0}, {"measurement": "Abdominal pain, number of subjects", "setting": "[1]", "value": 0}, {"measurement": "Dizziness, number of events", "setting": "[1]", "value": "1 / 1"}, {"measurement": "Dizziness, number of subjects", "setting": "[1]", "value": "1 / 1"}, {"measurement": "Dysphonia, number of events", "setting": "[1]", "value": "1 / 1"}, {"measurement": "Dysphonia, number of subjects", "setting": "[1]", "value": "1 / 1"}, {"measurement": "Euphoric mood, number of events", "setting": "[1]", "value": 0}, {"measurement": "Euphoric mood, number of subjects", "setting": "[1]", "value": 0}, {"measurement": "Fatigue, number of events", "setting": "[1]", "value": 0}, {"measurement": "Fatigue, number of subjects", "setting": "[1]", "value": 0}, {"measurement": "Feeling abnormal, number of events", "setting": "[1]", "value": 0}, {"measurement": "Feeling abnormal, number of subjects", "setting": "[1]", "value": 0}, {"measurement": "Headache, number of events", "setting": "[1]", "value": "1 / 1"}, {"measurement": "Headache, number of subjects", "setting": "[1]", "value": "1 / 1"}, {"measurement": "Nasal congestion, number of events", "setting": "[1]", "value": "1 / 1"}, {"measurement": "Nasal congestion, number of subjects", "setting": "[1]", "value": "1 / 1"}, {"measurement": "Nausea, number of events", "setting": "[1]", "value": 0}, {"measurement": "Nausea, number of subjects", "setting": "[1]", "value": 0}, {"measurement": "Rash, number of events", "setting": "[1]", "value": "1 / 1"}, {"measurement": "Rash, number of subjects", "setting": "[1]", "value": "1 / 1"}, {"measurement": "Rhinitis, number of events", "setting": "[1]", "value": "1 / 1"}, {"measurement": "Rhinitis, number of subjects", "setting": "[1]", "value": "1 / 1"}, {"measurement": "Rhinorrhoea, number of events", "setting": "[1]", "value": "1 / 1"}, {"measurement": "Rhinorrhoea, number of subjects", "setting": "[1]", "value": "1 / 1"}, {"measurement": "Somnolence, number of events", "setting": "[1]", "value": "5 / 5"}, {"measurement": "Somnolence, number of subjects", "setting": "[1]", "value": "5 / 5"}, {"measurement": "Vessel puncture site pain, number of events", "setting": "[1]", "value": "2 / 2"}, {"measurement": "Vessel puncture site pain, number of subjects", "setting": "[1]", "value": "2 / 2"}, {"measurement": "Vessel puncture site reaction, number of events", "setting": "[1]", "value": "1 / 1"}, {"measurement": "Vessel puncture site reaction, number of subjects", "setting": "[1]", "value": "1 / 1"}, {"measurement": "time to peak plasma concentrations", "setting": "[2]; after administration of commercially available formulation", "value": "2 to 3", "unit": "h"}, {"measurement": "elimination half‐life", "setting": "[2]; commercially available formulation", "value": "8 to 12", "unit": "h"}, {"measurement": "Ratio of geometric LS means (90% CI), celecoxib AUC τ, Treatment 3 vs. Treatment 4", "setting": "[3]; [6]", "value": "110.39 (105.68–115.32) %"}, {"measurement": "Ratio of geometric LS means (90% CI), celecoxib AUC ∞, Treatment 3 vs. Treatment 4", "setting": "[3]; [6]", "value": "103.64 (99.37–108.09) %"}, {"measurement": "Ratio of geometric LS means (90% CI), celecoxib C max, Treatment 3 vs. Treatment 4", "setting": "[3]; [6]", "value": "163.92 (146.56–183.35) %"}, {"measurement": "AUC(0-inf)", "setting": "[3]", "value": 3200, "unit": "ng·h/mL"}]}
{"compound": "COc1cccc(C2(O)CCCCC2CN(C)C)c1", "note": "(stereo not drawn) [tramadol]", "values": [{"measurement": "Number of subjects who reported AEs", "setting": "[1]", "value": 14}, {"measurement": "Number of subjects with AEs considered to be treatment‐related", "setting": "[1]", "value": 14}, {"measurement": "Subjects who reported AEs", "setting": "[1]", "value": 40.0, "unit": "%"}, {"measurement": "Subjects with AEs considered to be treatment‐related", "setting": "[1]", "value": 40.0, "unit": "%"}, {"measurement": "Abdominal pain, number of events", "setting": "[1]", "value": "2 / 2"}, {"measurement": "Abdominal pain, number of subjects", "setting": "[1]", "value": "2 / 2"}, {"measurement": "Dizziness, number of events", "setting": "[1]", "value": "4 / 4"}, {"measurement": "Dizziness, number of subjects", "setting": "[1]", "value": "4 / 4"}, {"measurement": "Dysphonia, number of events", "setting": "[1]", "value": "1 / 1"}, {"measurement": "Dysphonia, number of subjects", "setting": "[1]", "value": "1 / 1"}, {"measurement": "Euphoric mood, number of events", "setting": "[1]", "value": "2 / 2"}, {"measurement": "Euphoric mood, number of subjects", "setting": "[1]", "value": "2 / 2"}, {"measurement": "Fatigue, number of events", "setting": "[1]", "value": "2 / 2"}, {"measurement": "Fatigue, number of subjects", "setting": "[1]", "value": "2 / 2"}, {"measurement": "Feeling abnormal, number of events", "setting": "[1]", "value": "1 / 1"}, {"measurement": "Feeling abnormal, number of subjects", "setting": "[1]", "value": "1 / 1"}, {"measurement": "Headache, number of events", "setting": "[1]", "value": "1 / 1"}, {"measurement": "Headache, number of subjects", "setting": "[1]", "value": "1 / 1"}, {"measurement": "Nasal congestion, number of events", "setting": "[1]", "value": "1 / 1"}, {"measurement": "Nasal congestion, number of subjects", "setting": "[1]", "value": "1 / 1"}, {"measurement": "Nausea, number of events", "setting": "[1]", "value": 6}, {"measurement": "Nausea, number of subjects", "setting": "[1]", "value": 4}, {"measurement": "Rash, number of events", "setting": "[1]", "value": 0}, {"measurement": "Rash, number of subjects", "setting": "[1]", "value": 0}, {"measurement": "Rhinitis, number of events", "setting": "[1]", "value": 0}, {"measurement": "Rhinitis, number of subjects", "setting": "[1]", "value": 0}, {"measurement": "Rhinorrhoea, number of events", "setting": "[1]", "value": 0}, {"measurement": "Rhinorrhoea, number of subjects", "setting": "[1]", "value": 0}, {"measurement": "Somnolence, number of events", "setting": "[1]", "value": "10 / 10"}, {"measurement": "Somnolence, number of subjects", "setting": "[1]", "value": "10 / 10"}, {"measurement": "Vessel puncture site pain, number of events", "setting": "[1]", "value": 0}, {"measurement": "Vessel puncture site pain, number of subjects", "setting": "[1]", "value": 0}, {"measurement": "Vessel puncture site reaction, number of events", "setting": "[1]", "value": "1 / 1"}, {"measurement": "Vessel puncture site reaction, number of subjects", "setting": "[1]", "value": "1 / 1"}, {"measurement": "AUC(0-inf)", "setting": "[3]", "value": 3060, "unit": "ng·h/mL"}, {"measurement": "subjects affected by the most common AEs (nausea and dizziness)", "setting": "[4]", "value": "> 10", "unit": "%"}, {"measurement": "elimination half‐life (T ½el)", "setting": "[5]", "value": "5 to 6", "unit": "h"}]}
{"compound": "(+)‐O‐desmethyl‐tramadol [M1]", "values": [{"measurement": "affinity for the mu‐opioid receptor", "setting": "mu‐opioid receptor", "value": "much greater affinity"}]}
